The record followed here is patent publication US20230373930A1, “AMINOIMIDAZOLE FPR2 AGONISTS” (BRISTOL-MYERS SQUIBB COMPANY, priority 2020, published 2023).

For one assay, the target named is T1, human FPR2 (Homo sapiens, UniProt P25090).
T1 sequence (P25090 1-351): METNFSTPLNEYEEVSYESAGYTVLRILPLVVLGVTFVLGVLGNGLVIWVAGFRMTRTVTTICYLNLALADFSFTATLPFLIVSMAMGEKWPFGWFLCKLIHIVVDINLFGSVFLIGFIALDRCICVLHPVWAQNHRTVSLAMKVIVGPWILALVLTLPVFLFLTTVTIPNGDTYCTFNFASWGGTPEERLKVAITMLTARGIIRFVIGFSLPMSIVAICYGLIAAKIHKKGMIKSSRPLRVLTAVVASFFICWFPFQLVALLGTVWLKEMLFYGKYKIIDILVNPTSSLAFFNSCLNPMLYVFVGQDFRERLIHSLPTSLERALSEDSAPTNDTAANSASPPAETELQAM
Description: FPR2 cyclic adenosine monophosphate (cAMP) assay. Type of assay: cell-based. Particulars: CHO cells overexpressing human FPR2; forskolin 5 μM; inhibition of cAMP production; HTRF; read-out: hFPR2 cAMP2 EC50. A digest of the protocol:
(§1)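 CHO cells overexpressing human FPR1 (4,000/well, 10 μM forskolin) or FPR2 (2,000/well, 5 μM forskolin) were incubated with 200 μM IBMX and compound (0.020 nM–100 μM, 1% DMSO) for 30 min at room temperature. Intracellular cAMP was measured by HTRF against a cAMP standard curve, and inhibition of cAMP production was fitted to a 4-parameter logistic.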
Background: Cyclic AMP is a second messenger, typically raised through Gs and lowered through Gi signalling.

The target of the next assay is T2, human FPR1 (Homo sapiens, UniProt P21462).
T2 sequence (P21462 1-350): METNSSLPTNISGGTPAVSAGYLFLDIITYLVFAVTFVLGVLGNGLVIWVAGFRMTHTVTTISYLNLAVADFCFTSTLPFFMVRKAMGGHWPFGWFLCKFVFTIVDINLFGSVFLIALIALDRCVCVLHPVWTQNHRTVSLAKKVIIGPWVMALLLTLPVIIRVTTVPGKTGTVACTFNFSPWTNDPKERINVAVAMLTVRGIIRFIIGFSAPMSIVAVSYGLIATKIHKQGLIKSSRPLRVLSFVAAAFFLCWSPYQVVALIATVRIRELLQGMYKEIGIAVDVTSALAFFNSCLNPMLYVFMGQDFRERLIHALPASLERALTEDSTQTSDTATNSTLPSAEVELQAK
Description: FPR1 cyclic adenosine monophosphate (cAMP) assay. Type of assay: cell-based. Particulars: CHO cells overexpressing human FPR1; forskolin 10 μM; inhibition of cAMP production; HTRF; read-out: hFPR1 cAMP2 EC50. The essentials:
as §1

Bounds are passed on as bounds.

In the case of `COc1cc(F)c(-n2cc(C(=O)NCc3cnc(C)cn3)nc2NC(=O)c2ccc(OC(F)F)cc2)c(F)c1` [Example 56, 1-(2,6-Difluoro-4-methoxyphenyl)-2-[4-(difluoromethoxy)benzamido]-N-[(5-methylpyrazin-2-yl)methyl]-1H-imidazole-4-carboxmaide], the concentration giving a half-maximal response (EC50) was determined as 0.089 µM on human FPR2 and 0.11 µM on human FPR1.
As to `COc1cc(F)c(-n2cc(C(=O)N3CC[C@H](O)C3)nc2NC(=O)c2ccc(OC(F)F)cc2)c(F)c1` [Example 57, N-[1-(2,6-Difluoro-4-methoxyphenyl)-4-[(3S)-3-hydroxypyrrolidine-1-carbonyl]-1H-imidazol-2-yl]-4-(difluoromethoxy)benzamide], the EC50 on human FPR2 was determined as 0.12 µM; on human FPR1, 1.9 µM.
Regarding `COc1cc(F)c(-n2cc(C(=O)N3CCNC(=O)C3)nc2NC(=O)c2ccc(OC(F)F)cc2)c(F)c1` [Example 58, N-[1-(2,6-Difluoro-4-methoxyphenyl)-4-(3-oxopiperazine-1-carbonyl)-1H-imidazol-2-yl]-4-(difluoromethoxy)benzamide], the figures for the EC50 at human FPR2 and on human FPR1 were 0.17 µM and 3.4 µM, respectively.
In the case of `COc1cc(F)c(-n2cc(C(=O)N3CCC(CO)C3)nc2NC(=O)c2ccc(OC(F)F)cc2)c(F)c1` (stereo not drawn) [Example 59, N-[1-(2,6-Difluoro-4-methoxyphenyl)-4-[3-(hydroxymethyl)pyrrolidine-1-carbonyl]-1H-imidazol-2-yl]-4-(difluoromethoxy)benzamide], the EC50 was 0.082 µM on human FPR2 and 2.2 µM at human FPR1.
On the same counts, the results for `COc1cc(F)c(-n2cc(C(=O)NCCCO)nc2NC(=O)c2ccc(OC(F)F)cc2)c(F)c1` [Example 60, 1-(2,6-Difluoro-4-methoxyphenyl)-2-[4-(difluoromethoxy)benzamido]-N-(3-hydroxypropyl)-1H-imidazole-4-carboxamide] are 0.056 µM and 1.4 µM.
The like results for `COc1cc(F)c(-n2cc(C(=O)N3CCNCC3)nc2NC(=O)c2ccc(OC(F)F)cc2)c(F)c1` [Example 61, N-[1-(2,6-Difluoro-4-methoxyphenyl)-4-(piperazine-1-carbonyl)-1H-imidazol-2-yl]-4-(difluoromethoxy)benzamide] were, in that order, 0.13 µM and > 10 µM.
Take `COc1cc(F)c(-n2cc(C(=O)Nc3cn[nH]c3)nc2NC(=O)c2ccc(OC(F)F)cc2)c(F)c1` [Example 62, 1-(2,6-Difluoro-4-methoxyphenyl)-2-[4-(difluoromethoxy)benzamido]-N-(1H-pyrazol-4-yl)-1H-imidazole-4-carboxamide]: the results for the concentration for a half-maximal effect (EC50) on human FPR2 and at human FPR1 were 0.032 µM and 0.83 µM, respectively.
The like results for `COc1cc(F)c(-n2cc(C3CCNCC3)nc2NC(=O)c2ccc(OC(F)F)cc2)c(F)c1` [Example 63, N-[1-(2,6-Difluoro-4-methoxyphenyl)-4-(piperidin-4-yl)-1H-imidazol-2-yl]-4-(difluoromethoxy)benzamide] were, in that order, 0.01 µM and 0.71 µM.
On the same counts, the results for `COc1ccc(-n2cc(C3CCCNC3)nc2NC(=O)c2ccc(OC(F)F)cc2)cc1` (stereo not drawn) [Example 64, 4-(Difluoromethoxy)-N-[1-(4-methoxyphenyl)-4-(piperidin-3-yl)-1H-imidazol-2-yl]benzamide] are 0.011 µM and 0.21 µM.
As to `CCS(=O)(=O)N1CCC(c2cn(-c3c(F)cc(OC)cc3F)c(NC(=O)c3ccc(OC(F)F)cc3)n2)CC1` [Example 65, N-[1-(2,6-Difluoro-4-methoxyphenyl)-4-[1-(ethanesulfonyl)piperidin-4-yl]-1H-imidazol-2-yl]-4-(difluoromethoxy)benzamide], the 50% effective concentration (EC50) was found to be 0.081 µM at human FPR2 and 0.32 µM on human FPR1.
Take `CCNC(=O)N1CCC(c2cn(-c3c(F)cc(OC)cc3F)c(NC(=O)c3ccc(OC(F)F)cc3)n2)CC1` [Example 66, 4-[1-(2,6-Difluoro-4-methoxyphenyl)-2-[4-(difluoromethoxy)benzamido]-1H-imidazol-4-yl]-N-ethylpiperidine-1-carboxamide]: the values for the EC50 at human FPR2 and at human FPR1 were 0.028 µM and 0.54 µM, respectively.
The like results for `COc1cc(F)c(-n2cc(C3CCN(C(=O)CCC(N)=O)CC3)nc2NC(=O)c2ccc(OC(F)F)cc2)c(F)c1` [Example 67, N-{4-[1-(3-Carbamoylpropanoyl)piperidin-4-yl]-1-(2,6-difluoro-4-methoxyphenyl)-1H-imidazol-2-yl}-4-(difluoromethoxy)benzamide] were, in that order, 0.054 µM and 0.083 µM.
On to `COc1cc(F)c(-n2cc(C3CCN(C(=O)CCO)CC3)nc2NC(=O)c2ccc(OC(F)F)cc2)c(F)c1` [Example 68, N-[1-(2,6-difluoro-4-methoxyphenyl)-4-[1-(3-hydroxypropanoyl)piperidin-4-yl]-1H-imidazol-2-yl]-4-(difluoromethoxy)benzamide], for which the figures for the EC50 at human FPR2 and on human FPR1 were 0.045 µM and 0.11 µM, respectively.
On the same counts, the results for `COc1cc(F)c(-n2cc(C(=O)N3CCC(CO)CC3)nc2NC(=O)c2ccc(OC(F)F)cc2)c(F)c1` [Example 69, N-[1-(2,6-difluoro-4-methoxyphenyl)-4-[4-(hydroxymethyl)piperidine-1-carbonyl]-1H-imidazol-2-yl]-4-(difluoromethoxy)benzamide] are 0.086 µM and 2.99 µM.
As for `COc1cc(F)c(-n2cc(C(C)C)nc2NC(=O)c2ccc(OC(F)F)cc2)c(F)c1` [Example 70, N-(1-(2,6-Difluoro-4-methoxyphenyl)-4-isopropyl-1H-imidazol-2-yl)-4-(difluoromethoxy)benzamide], the EC50 at human FPR2 came out at 0.031 µM; at human FPR1, 0.97 µM.
In the case of `COc1cc(F)c(-n2cc(Cc3ccccc3)nc2NC(=O)c2ccc(OC(F)F)cc2)c(F)c1` [Example 71, N-[4-benzyl-1-(2,6-difluoro-4-methoxyphenyl)-1H-imidazol-2-yl]-4-(difluoromethoxy)benzamide], the EC50 on human FPR2 was 0.046 µM; on human FPR1, 1.3 µM.
For the compound `CCOC(=O)Cc1cn(-c2c(F)cc(OC)cc2F)c(NC(=O)c2ccc(OC(F)F)cc2)n1` [Example 72, ethyl 2-[1-(2,6-difluoro-4-methoxyphenyl)-2-[4-(difluoromethoxy)benzamido]-1H-imidazol-4-yl]acetate], the EC50 amounted to 0.022 µM at human FPR2 and 0.47 µM at human FPR1.
On the same counts, the results for `COc1cc(F)c(-n2cc(Cc3nnc(C)o3)nc2NC(=O)c2ccc(OC(F)F)cc2)c(F)c1` [Example 73, N-(1-(2,6-Difluoro-4-methoxyphenyl)-4-((5-methyl-1,3,4-oxadiazol-2-yl)methyl)-1H-imidazol-2-yl)-4-(difluoromethoxy)benzamide] are 0.023 µM and 0.3 µM.
The like results for `COc1cc(F)c(-n2cc(C3CC(O)C3)nc2NC(=O)c2ccc(OC(F)F)cc2)c(F)c1` (stereo not drawn) [Example 74, N-(1-(2,6-Difluoro-4-methoxyphenyl)-4-(3-hydroxycyclobutyl)-1H-imidazol-2-yl)-4-(difluoromethoxy)benzamide] were, in that order, 0.007 µM and 0.25 µM.
Consider `COc1cc(F)c(-n2cc(C3CC4(CNC4)C3)nc2NC(=O)c2ccc(OC(F)F)cc2)c(F)c1` [Example 75, N-(1-(2,6-Difluoro-4-methoxyphenyl)-4-(2-azaspiro[3.3]heptan-6-yl)-1H-imidazol-2-yl)-4-(difluoromethoxy)benzamide], for which the concentration for a half-maximal effect (EC50) at human FPR2 is 0.023 µM; at human FPR1, > 10 µM.
With `COc1cc(F)c(-n2cc(C3CCC(O)CC3)nc2NC(=O)c2ccc(OC(F)F)cc2)c(F)c1` (stereo not drawn) [Example 76, N-(1-(2,6-Difluoro-4-methoxyphenyl)-4-(4-hydroxycyclohexyl)-1H-imidazol-2-yl)-4-(difluoromethoxy)benzamide], the EC50 on human FPR2 is 0.01 µM; at human FPR1 it was 0.24 µM.
The like results for `COc1cc(F)c(-n2cc(Cc3nc4ncc(F)cc4[nH]3)nc2NC(=O)c2ccc(OC(F)F)cc2)c(F)c1` [Example 77, N-(1-(2,6-Difluoro-4-methoxyphenyl)-4-((6-fluoro-1H-imidazo[4,5-b]pyridin-2-yl)methyl)-1H-imidazol-2-yl)-4-(difluoromethoxy)benzamide] were, in that order, 0.013 µM and 0.12 µM.
On the same counts, the results for `COc1cc(F)c(-n2cc(Cc3ccccn3)nc2NC(=O)c2ccc(OC(F)F)cc2)c(F)c1` [Example 78, N-[1-(2,6-difluoro-4-methoxyphenyl)-4-[(pyridin-2-yl)methyl]-1H-imidazol-2-yl]-4-(difluoromethoxy)benzamide] are 0.056 µM and 0.87 µM.
The like results for `COc1cc(F)c(-n2cc(C3CNC3)nc2NC(=O)c2ccc(OC(F)F)cc2)c(F)c1` [Example 79, N-[4-(azetidin-3-yl)-1-(2,6-difluoro-4-methoxyphenyl)-1H-imidazol-2-yl]-4-(difluoromethoxy)benzamide] were, in that order, 0.081 µM and 4.2 µM.

By EC50 is commonly meant the concentration at which the effect is half-maximal.
